Results taken from patent publication US7846959B2, “Raf modulators and methods of use” (Exelixis, Inc., priority 2004, dated 2010).
Like-named read-outs stand apart in the source and are kept apart here.

Key:
c-Raf = c-Raf (Homo sapiens, UniProt P04049); assay: Luciferase-coupled chemiluminescence kinase assay (ATP consumption), c-Raf; assay type: biochemical
Summary of the method: (§1)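 Raf enzyme ([…]) pre-incubated with compound 30 minutes at room temperature in 20 mM Tris pH 7.5, 10 mM MgCl2, 0.03% TX-100, 1 mM DTT, then reacted with ATP for 3 hrs at ambient temperature. Remaining ATP quantified by luciferase-luciferin chemiluminescence, consumption held at 25-60%; IC50 reported.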

B-Raf = B-Raf (Homo sapiens, UniProt P15056); assay: Luciferase-coupled chemiluminescence kinase assay (ATP consumption), B-Raf; assay type: biochemical
B-Raf, sequence (P15056 whole entry): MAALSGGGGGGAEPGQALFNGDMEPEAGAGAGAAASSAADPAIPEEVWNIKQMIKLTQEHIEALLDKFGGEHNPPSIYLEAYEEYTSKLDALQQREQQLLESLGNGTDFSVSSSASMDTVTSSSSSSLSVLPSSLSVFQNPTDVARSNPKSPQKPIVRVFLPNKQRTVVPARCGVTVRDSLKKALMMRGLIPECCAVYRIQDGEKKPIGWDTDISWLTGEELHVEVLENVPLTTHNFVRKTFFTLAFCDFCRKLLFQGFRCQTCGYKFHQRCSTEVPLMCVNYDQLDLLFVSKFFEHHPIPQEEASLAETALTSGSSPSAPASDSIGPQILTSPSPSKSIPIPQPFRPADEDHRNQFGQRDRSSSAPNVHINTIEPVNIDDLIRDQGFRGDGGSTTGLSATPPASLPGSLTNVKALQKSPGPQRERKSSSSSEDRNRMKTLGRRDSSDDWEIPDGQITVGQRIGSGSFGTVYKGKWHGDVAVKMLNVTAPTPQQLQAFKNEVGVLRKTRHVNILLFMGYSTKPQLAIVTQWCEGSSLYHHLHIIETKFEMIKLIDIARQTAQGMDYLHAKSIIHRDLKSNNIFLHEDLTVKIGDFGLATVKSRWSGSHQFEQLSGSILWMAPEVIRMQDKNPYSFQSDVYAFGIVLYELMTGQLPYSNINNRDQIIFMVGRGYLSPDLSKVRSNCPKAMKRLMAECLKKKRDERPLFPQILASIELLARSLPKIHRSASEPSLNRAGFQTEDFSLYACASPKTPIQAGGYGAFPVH
Summary of the method: as §1

[1] = read-out: cRaf-1 (inhibition indicated as IC50)
[2] = read-out: bRaf (inhibition indicated as IC50)

c-Raf, sequence (P04049 whole entry): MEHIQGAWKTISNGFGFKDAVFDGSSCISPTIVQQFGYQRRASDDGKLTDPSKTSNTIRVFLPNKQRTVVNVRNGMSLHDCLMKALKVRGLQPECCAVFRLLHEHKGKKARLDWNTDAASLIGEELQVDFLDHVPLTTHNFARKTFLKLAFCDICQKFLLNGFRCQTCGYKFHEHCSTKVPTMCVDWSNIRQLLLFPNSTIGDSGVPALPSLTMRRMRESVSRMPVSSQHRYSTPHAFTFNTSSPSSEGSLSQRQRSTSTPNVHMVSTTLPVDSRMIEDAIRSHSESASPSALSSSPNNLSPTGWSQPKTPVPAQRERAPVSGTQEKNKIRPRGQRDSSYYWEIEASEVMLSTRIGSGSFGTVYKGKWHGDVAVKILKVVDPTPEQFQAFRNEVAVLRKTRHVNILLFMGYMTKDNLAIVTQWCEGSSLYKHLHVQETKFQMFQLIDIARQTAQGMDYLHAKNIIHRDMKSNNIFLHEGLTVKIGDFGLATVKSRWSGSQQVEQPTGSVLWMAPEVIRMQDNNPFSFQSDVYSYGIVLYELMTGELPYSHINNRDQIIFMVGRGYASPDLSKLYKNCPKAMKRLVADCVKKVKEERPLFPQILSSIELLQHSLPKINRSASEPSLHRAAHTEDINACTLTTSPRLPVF

SMILES	IC50 (c-Raf; read-out: cRaf-1 IC50) [nM]	IC50 (B-Raf; read-out: bRaf IC50) [nM]	IC50 (c-Raf; [1]) [nM]	IC50 (B-Raf; [2]) [nM]
COC(=O)Nc1nc2cc(C3(O)c4ccccc4C(=O)N3c3cccc(F)c3)ccc2[nH]1 (stereo not drawn) [Entry 136, methyl {5-[2-(3-fluorophenyl)-1-hydroxy-3-oxo-2,3-dihydro-1H-isoindol-1-yl]-1H-benzimidazol-2-yl}carbamate]	< 100	< 100	–	–
COC(=O)Nc1nc2cc(C3(O)c4ccccc4C(=O)N3CC(C)(C)C)ccc2[nH]1 (stereo not drawn) [Entry 154, methyl {5-[2-(2,2-dimethylpropyl)-1-hydroxy-3-oxo-2,3-dihydro-1H-isoindol-1-yl]-1H-benzimidazol-2-yl}carbamate]	1000 to 10000	1000 to 10000	–	–
O=C1c2ccccc2C(O)(c2ccc3[nH]c(Nc4ccccc4)nc3c2)N1c1cccc(Cl)c1F (stereo not drawn) [Entry 348, 2-(3-chloro-2-fluorophenyl)-3-hydroxy-3-[2-(phenylamino)-1H-benzimidazol-5-yl]-2,3-dihydro-1H-isoindol-1-one]	–	–	1000 to 10000	1000 to 10000
COC(=O)Nc1nc2cc(C3(O)c4ccccc4C(=O)N3c3ccccc3C)ccc2[nH]1 (stereo not drawn) [Entry 144, methyl {5-[1-hydroxy-2-(2-methylphenyl)-3-oxo-2,3-dihydro-1H-isoindol-1-yl]-1H-benzimidazol-2-yl}carbamate]	< 100	< 100	–	–
CC#CCOC(=O)Nc1nc2cc(C3(O)c4ccccc4C(=O)N3[C@H](C)c3ccccc3)ccc2[nH]1 (stereo partly drawn) [Entry 148, but-2-yn-1-yl (5-{1-hydroxy-3-oxo-2-[(1R)-1-phenylethyl]-2,3-dihydro-1H-isoindol-1-yl}-1H-benzimidazol-2-yl)carbamate]	< 100	< 100	–	–
CN(C)CCOC(=O)Nc1nc2ccc(C3(O)c4ccccc4C(=O)N3c3cccc(Cl)c3F)cc2[nH]1 (stereo not drawn) [Entry 291, 2-(dimethylamino)ethyl {6-[2-(3-chloro-2-fluorophenyl)-1-hydroxy-3-oxo-2,3-dihydro-1H-isoindol-1-yl]-1H-benzimidazol-2-yl}carbamate]	–	–	< 100	< 100
COC(=O)Nc1nc2cc(C3(O)c4ccccc4C(=O)N3C(C)c3cccc(F)c3)ccc2[nH]1 (stereo not drawn) [Entry 166, methyl (5-{2-[1-(3-fluorophenyl)ethyl]-1-hydroxy-3-oxo-2,3-dihydro-1H-isoindol-1-yl}-1H-benzimidazol-2-yl)carbamate]	100 to 1000	< 100	–	–
CC#CCOC(=O)Nc1nc2cc(C3(O)c4ccccc4C(=O)N3c3ccc(F)cc3)ccc2[nH]1 (stereo not drawn) [Entry 273, but-2-yn-1-yl {5-[2-(4-fluorophenyl)-1-hydroxy-3-oxo-2,3-dihydro-1H-isoindol-1-yl]-1H-benzimidazol-2-yl}carbamate]	–	–	< 100	< 100
O=C(Cc1cccs1)Nc1nc2cc(C3(O)c4ccccc4C(=O)N3c3cccc(Cl)c3F)ccc2[nH]1 (stereo not drawn) [Entry 338, N-{5-[2-(3-chloro-2-fluorophenyl)-1-hydroxy-3-oxo-2,3-dihydro-1H-isoindol-1-yl]-1H-benzimidazol-2-yl}-2-(2-thienyl)acetamide]	–	–	< 100	< 100
C#Cc1cccc(N2C(=O)c3ccccc3C2(O)c2ccc3[nH]c(NC(=O)OC)nc3c2)c1 (stereo not drawn) [Entry 179, methyl {5-[2-(3-ethynylphenyl)-1-hydroxy-3-oxo-2,3-dihydro-1H-isoindol-1-yl]-1H-benzimidazol-2-yl}carbamate]	< 100	< 100	–	–
O=C(Nc1nc2cc(C3(O)c4ccccc4C(=O)N3c3cccc(Cl)c3F)ccc2[nH]1)C1CC1 (stereo not drawn) [Entry 335, N-{5-[2-(3-chloro-2-fluorophenyl)-1-hydroxy-3-oxo-2,3-dihydro-1H-isoindol-1-yl]-1H-benzimidazol-2-yl}cyclopropanecarboxamide]	–	–	< 100	< 100
COC(=O)Nc1nc2cc(C3(O)c4ccccc4C(=O)N3c3ccc(OC)cc3)ccc2[nH]1 (stereo not drawn) [Entry 128, methyl (5-{1-hydroxy-2-[4-(methyloxy)phenyl]-3-oxo-2,3-dihydro-1H-isoindol-1-yl}-1H-benzimidazol-2-yl)carbamate]	1000 to 10000	1000 to 10000	–	–
